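1) Cells in 96-well plates. 2) Compound, 48 h, 5 concentrations. 3) Linear interpolation between surrounding doses. 4) Unreached endpoint = highest concentration. The concentration for 50% growth inhibition is given as GI50. TGI denotes the concentration required for complete inhibition of growth.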
Legend:
Assay in all cases: inhibition of tumour cell growth, NCI panel, 48 h
[1] = tested on: 786-0 renal
[2] = tested on: A498 renal
[3] = tested on: ACHN renal
[4] = tested on: BT-549 breast
[5] = tested on: CCRF-CEM leukemia
[6] = tested on: COLO 205 colon
[7] = tested on: DU-145 prostate
[8] = tested on: EKVX NSCLC
[9] = tested on: HCC-2998 colon
[10] = tested on: HCT-116 colon
[11] = tested on: HCT-15 colon
[12] = tested on: HOP-62 NSCLC
[13] = tested on: HS 578T breast
[14] = tested on: HT29 colon
[15] = tested on: IGROV1 ovarian
[16] = tested on: K-562 leukemia
[17] = tested on: KM12 colon
[18] = tested on: LOX IMVI melanoma
[19] = tested on: M14 melanoma
[20] = tested on: MCF7 breast
[21] = tested on: MDA-MB-231 breast
[22] = tested on: MOLT-4 leukemia
[23] = tested on: NCI-H226 lung
[24] = tested on: NCI-H23 lung

## COC(=O)[C@@H](C)C[C@H](Cc1ccc2ccccc2c1)NC(=O)c1csc([C@@H](C[C@H](C(C)C)N(C)C(=O)[C@@H](NC(=O)[C@H]2CCCCN2C)C(C)C)OC(C)=O)n1
[1]
  GI50: 9.94 nM
  TGI: 5080 nM
[2]
  GI50: 74.5 nM
  TGI: > 25000 nM
[3]
  GI50: 164 nM
  TGI: 4590 nM
[4]
  GI50: 13 nM
  TGI: 374 nM
[5]
  GI50: 10.3 nM
  TGI: > 25000 nM
[6]
  GI50: 16 nM
  TGI: 282 nM
[7]
  GI50: 9.84 nM
  TGI: > 25000 nM
[8]
  GI50: 41.8 nM
  TGI: > 25000 nM
[9]
  GI50: 52.9 nM
  TGI: 21600 nM
[10]
  GI50: 8.65 nM
  TGI: 13000 nM
[11]
  GI50: 52.2 nM
  TGI: > 25000 nM
[12]
  GI50: 22.1 nM
  TGI: > 25000 nM
[13]
  GI50: 12.2 nM
  TGI: > 25000 nM
[14]
  GI50: 8.29 nM
  TGI: 4520 nM
[15]
  GI50: 18.3 nM
  TGI: > 25000 nM
[16]
  GI50: 7.06 nM
  TGI: 8760 nM
[17]
  GI50: 11 nM
  TGI: > 25000 nM
[18]
  GI50: 13 nM
  TGI: 4780 nM
[19]
  GI50: 12.9 nM
  TGI: 4290 nM
[20]
  GI50: 6.99 nM
  TGI: 9210 nM
[21]
  GI50: 20.6 nM
  TGI: 7170 nM
[22]
  GI50: 11.5 nM
  TGI: 7540 nM
[23]
  GI50: 7110 nM
  TGI: > 25000 nM
[24]
  GI50: 28.1 nM
